This note sets out measurements from US5728684A, “Determination of prodrugs metabolizable by the liver and therapeutic use thereof” (priority 1994, dated 1998).

Entries after “also recorded” stand apart in the source; their conditions may differ.

The test system of one series is Transgenic mice. Put plainly: Treatment of transgenic mice expressing SV40 large tumor antigen. Type of series: in vivo, mouse.
A further series has as its system P388-R leukemia cells. Put plainly: Survival time of mice bearing P388-R leukemia cells. Type of series: in vivo, mouse. The conditions noted are these: for Cures/Total / ILS (increase in life span over controls): daily on Day 1,2,3,4,5. The protocol:
(§1) Mice were injected with 100,000 P388-R leukemia cells to induce a leukemia. These cells were resistant to Adriamycin. Daily treatments of 25 and 50 mg/kg FU and 50 and 100 mg/kg FP were given orally to these leukemic mice and the duration of survival was measured. The results are given in tabular and graphic form in Table VII and FIG. 4.
Inoculum: 10^6 P388R cells into each mouse (i.p.)

In another series the test system is aldehyde oxidase. Put plainly: Substrate specificity of the conversion of RPdR to RUdR. It counts as in vitro ADME, rat. The conditions noted are these: substrate 180 μM; 2 to 4 separate experiments; in nmol/mg/min. The protocol: Rat hepatic tissue was washed with ice-cold 1.15% KCl and blotted dry. The tissue was then homogenized with a tissue homogenizer, in a volume of 1.15% KCl that was 3 times the tissue weight, to form a 25% (w/v) homogenate. The homogenate was then centrifuged at 10,000 g for 10 minutes at 4° C. The resulting supernatant was filtered through Miracloth (similar to cheese cloth) then dialyzed overnight against 50 mM Tris-HCl buffer pH 7.5 and stored at -80° C. before use. Rat hepatocytes were obtained by a perfusion technique then the cells were extracted with 10 mM phosphate buffer, pH 7.5, containing 1M KCl and dialyzed for 4 hours against 50 mM Tris-HCl buffer pH 7.5.
For the standard assay condition, the reaction mixture contained 50 mM Tris-HCl, pH 7.5, 1 mM EDTA, 180 μM of IPdR (or its analogs) and approximately 0.01 mg protein of 10,000 g supernatant of tissue homogenate in a final volume of 500 μl and the incubation was at 37° C. for 10 minutes unless specified otherwise. 300 μl of reaction mixture was removed at the end of incubation and mixed with 630 μl acetonitrile then agitated. The precipitated protein were removed by centrifugation and the supernatant was lyophilized to dryness. The samples were reconstituted to the original aliquot volume with the HPLC mobile phase buffer and analyzed on a Alltech RP-18 column. IPdR, IUdR and IU were detected at a UV absorption wavelength of 230 nm, and IPdR was also detected at a UV absorption wavelength of 335 nm. The mobile phase was 10% acetonitrile/90%mM ammonium acetate, pH 6.8 and the flow rate was 1 ml/minute. Standard curves of IPdR and IUdR were established from the integration value of known concentrations.
Several 2-pyrimidinone deoxyribose analogs were examined for the conversion to their deoxyuridine counterparts. […] Nevertheless the relative Vmax for IPdR in the reaction at pH 7.5 and pH 9.5 is the same. […] The synthetic substrates for aldehyde oxidase appear to be better than its natural substrates, N^1 -methylnicotinamide and acetaldehyde, as judged by the potency of inhibition of N^1 -methylnicotinamide and acetaldehyde to the IPdR oxidation reaction (Table IV). The rate of reactivity of the liver enzyme with different IPdR analogs follows the order EPdR, IP, IPdR, 5-bromo-2-pyrimidinone deoxyribose (BPdR) and 5-methyl-2-pyrimidinone deoxyribose (MPdR) or 5-ethyl-2-pyrimidinone deoxyribose (EtPdR) (Table V). Electronegative substituents in the 5-position seemed to increase the substrate activity in this oxidation reaction.
Substrate specificity of the conversion of […]

Series [1] relates to hepatic aldehyde oxidase. Kind of series: Conversion of prodrugs to active compound in vivo. The source says:
(§2) As most nucleosides and nucleoside bases include keto groups in their formula and many are structurally related to the structure of uracil, it is expected that bio-affecting compounds which are analogs of nucleosides and nucleoside bases are prime candidates for bio-affecting compounds for which prodrugs in accordance with the present invention can be designed, metabolizable by hepatic aldehyde oxidase into such compounds. Thus, in addition to uracil and uridine analogs, analogs of other nucleosides and nucleoside bases, such as cytidine, guanosine, 6-azauridine and 8-azaguanine analogs, may be used as the basis of the formation of prodrugs in accordance with the present invention. Examples of bio-affecting compounds in this category include ddG, DHPG, ACV, ddI, D4T and AZT.

The subject of series [2] is leukemia and colon cancer. Kind of series: Therapeutic effectiveness of FP versus FU in leukemia and colon cancer. It counts as in vivo, mouse. The conditions noted are these: oral FP.
From the text: There are other occasions besides the treatment of liver-associated diseases when the administration of a prodrug will be preferred to the administration of the bio-affecting compound which is formed from such prodrugs. For example, many drugs are not orally administrable for any of a variety of reasons. Oral administration of a prodrug from which the active compound is released in the liver will avoid most of the disadvantages of oral administration of the active compound. Thus, for example, FU is a well-known anti-cancer drug which cannot be administered orally. FP is a prodrug which is metabolizabie by hepatic aldehyde oxidase to FU. FP may be given orally to a subject.
as §1
(§3) Mice were injected with colon 38 cells and were either not treated or treated with daily treatments of 25 and 50 mg/kg FU and 50 and 100 mg/kg FP were given orally to the mice and the change in tumor weight was measured over time.

In another series the test system is colon 38 cells. Put plainly: Colon 38 tumor weight in mice. Type of series: in vivo, mouse. The conditions noted are these: FU 25 and 50, FP 50 and 100 mg/kg daily oral. Here is the method: as §3
For series [3], the system named is hepatic aldehyde oxidase. Put plainly: Metabolism of prodrugs by hepatic aldehyde oxidase in vitro / in vivo. It counts as in vitro ADME.
From the text: as §2

For a further series, the system named is BDF1 mice. Kind of series: Toxicity of FU and FP in BDF1 mice. Type of series: in vivo. The conditions noted are these: for Death/Total: Day 1,2,3,4,5. The protocol:
(§4) BDF1 mice were administered daily oral dosages of either 50, 75 or 100 mg/kg of FU or 100, 150 or 200 mg/kg of FP. The survival rates of each are presented in chart and graphic forms in Table VI and FIGS. 2 and 3.

A short description of series [4]: Toxicity of FU and FP in BDF1 mice. Type of series: in vivo. The conditions noted are these: mouse, in vivo, po, daily, Day 1,2,3,4,5. Here is the method: as §4

Method for Transgenic mice: Transgenic mice obtained according to the method of Sepulveda et al., Cancer Research 49:6108-6117 (1989) were administered beginning at nine weeks after birth in a female and male, wherein the treatment group received 100 mg/kg two times per day, once per week.

In the case of `Oc1ncc(F)cn1` [FP, 5-fluoro-2-pyrimidinone], in the series on Transgenic mice (after week 13), the “weight gain, male and female” value is reported as “significantly decreased weight gain”. Further, in the series with Transgenic mice (female, 100 mg/kg two times per day, once per week), the “body weight increase, female” value is “slower increase in body weight”. In addition, the “survival, female” value in the series with Transgenic mice (female, versus control, which died at week 16) is “lived longer; also recorded: survived the control rat”. Also, the “body weight increase, male” value in the series with Transgenic mice (male, 100 mg/kg two times per day, once per week) is listed as “slower increase in body weight”. Besides, the “survival, male” value in the series on Transgenic mice (male, inferred from slower body weight increase) is “longer survival than control”. Besides, the Cures/Total in the series on P388-R leukemia cells (50 mg/kg oral) and in the series with P388-R leukemia cells (100 mg/kg oral) was 0/5 each time. The “ILS (increase in life span over controls)” value is given as 0% with P388-R leukemia cells (50 mg/kg oral) and 30% in the series with P388-R leukemia cells (100 mg/kg oral). Further, in the series on P388-R leukemia cells (FU 25 and 50, FP 50 and 100 mg/kg oral), the “survival time using FP compared to FU” value is reported as “as long using FP compared to FU”. Moreover, the “Conversion of RPdR to RUdR” value in the series on aldehyde oxidase was 20. Further, the “metabolism to FU by hepatic aldehyde oxidase in vivo” value in the series with hepatic aldehyde oxidase [1] was “metabolizable to FU”. Also, in series [2], the “effectiveness of FP compared with FU” value was “essentially the same as FU”. For the same molecule, in the series with colon 38 cells, the “reduction in tumor size or reduction in its growth rate, FU versus FP” value is “comparable between FU and FP”. Also, the “metabolism to FU by hepatic aldehyde oxidase in vitro” value in the series on hepatic aldehyde oxidase [3] is “metabolizable to FU”. In addition, the Death/Total was 5/5 in the series on BDF1 mice (100 mg/kg p.o.), 4/5 with BDF1 mice (150 mg/kg p.o.) and 0/5 in the series on BDF1 mice (200 mg/kg p.o.). Also, the “toxicity of FP compared with FU” value with BDF1 mice (oral, even when higher dosages were administered) is “considerably less”. For the same molecule, in series [4], the LD50 came out at 180 mg/kg.
